US20040097544A1, “Use of an inhibitor of the Na+/H+ exchanger for the production of a medicament for the treatment or prophylaxis of disturbances of the central nervous system” (Hoechst Marion Roussel Deutschland GMBH, priority 1997, published 2004)

System: CA3 neurons of the hippocampus
Experiment: Decrease in neuronal excitability on hippocampus slice preparations of CA3 neurons, intracellular leads
Format: cell-based, guinea-pigs
Experimental: In the model of CA3 neurons in hippocampus tissue slices, NHE inhibitors with their antiepileptic and antipsychotic therapy potential inhibit epileptiform discharges. Hyperexcitability of neurons in the form of so-called epileptiform discharges was triggered by the action of bicuculline, caffeine or low magnesium concentrations. […] The decrease in neuronal excitability was tested on slice preparations of CA3 neurons of the hippocampus (guinea-pigs). The excitation-inhibiting action of cariporide (HOE 642) was investigated in 8 experiments. The neuronal excitability was assessed with intracellular leads with the aid of the spontaneous bioelectric activity and the pharmacologically produced epileptiform activity which had been induced by bicuculline, caffeine or absence of magnesium.

CC(C)c1ccc(C(=O)NC(=N)N)cc1S(C)(=O)=O [cariporide]
inhibition of the epileptiform discharges (CA3 neurons in hippocampus tissue slices, discharges triggered by bicuculline, caffeine or low magnesium concentrations): marked inhibition | duration of the reduction of spontaneous action potential and paroxysmal depolarization frequency (after wash-in of 0.1-0.5 mM cariporide): more than 45 minutes | reduction of the frequency of the spontaneous action potentials (after wash-in of 0.1-0.5 mM cariporide, reversible, 8 experiments): 30-80% | reduction of the frequency of periodic paroxysmal depolarization (after wash-in of 0.1-0.5 mM cariporide, reversible, epileptiform activity induced by bicuculline, caffeine or absence of magnesium, 8 experiments): 30-80%
